# Read-outs that look alike come from different tables or passages of the source.
# Legend:
# PC3 and DU145 cells [1] = assay: Serum-free cell survival assay (WST-1); assay type: cell-based, human; settings: 10 μM, 4 h in situ
# Procedure: (§1) Inhibitors were dissolved in DMSO and diluted into media or buffer prior to cell or proteome treatment, respectively. For in vitro treatment, final DMSO concentration was 4%. For in situ treatments of cells for ABPP, lipid measurements, migration, cell-survival, and invasion assays, 2×10^6 cells were seeded in 6 cm dishes (˜100% confluency) 24 h prior to inhibitor pre-treatment (in DMSO at 0.1% final concentration) in serum-free media (3 mL) for the designated time before harvesting cells for ABPP or lipid measurements or before the initiation of migration, cell-survival, and invasion assays.
# (§2) Cell migration, cell survival, and invasion studies were performed as previously described (Nomura et al., 2010). Briefly, migration assays were performed in Transwell chambers (Corning) with 8 μm pore-sized membranes coated with 10 μg/mL collagen at 37° C. for LNCaP (24 h), PC3 (4 h) and DU145 cells (24 h), respectively. Cell survival assays were performed using the Cell Proliferation Reagent WST-1 (Roche) Invasion assays were conducted using the BD Matrigel Invasion Chambers per the manufacturer's protocol. Inhibitors were preincubated for the stated duration before seeding cells into migration, cell-survival, or invasion chambers. Prior to seeding the cells in these chambers, cells were serum-starved for 4 h. Inhibitors were also present during the migration, cell-survival, and invasion assays.
# PC3 and DU145 cells [2] = assay: Invasion assay (Matrigel chambers); assay type: cell-based, human; settings: 10 μM, 4 h in situ
# Procedure: as §1, §2
# [3] = test system: MAGE levels in PC3 and DU145 cells; assay: Lipid (MAGE) measurements in cancer cells; assay type: cell-based, human; settings: 10 μM, 4 h in situ
# Procedure: as §1
# Lipid measurements were performed in cancer cells as previously described (Chiang et al., 2006). Briefly, frozen cell pellets from cells harvested after 4 h serum starvation were extracted in 2:1:1 chloroform:methanol:Tris buffer pH 8.0 by dounce homogenization with 10 nmol of internal standard C12 MAGE. The organic layer was removed, dried under N2, and resuspended in 120 μL of chloroform, and 30 μL was injected into an Agilent 1100-MSD LC-MS. MAGE levels were quantified by measuring the area under the peak and were normalized to the C12 MAGE internal standard.
# HSL = biological target: T1, HSL (Mus musculus, UniProt P54310); assay: Competitive ABPP of HSL in rosiglitazone-differentiated 3T3-10T1/2 adipocyte proteome; assay type: biochemical
# T1 construct: ABPP analysis of HSL from a rosiglitazone-differentiated 3T3-10T1/2 adipocyte proteome; endogenous in cells; host or cells: rosiglitazone-differentiated 3T3-10T1/2 adipocytes
# T1 sequence (P54310 1-759): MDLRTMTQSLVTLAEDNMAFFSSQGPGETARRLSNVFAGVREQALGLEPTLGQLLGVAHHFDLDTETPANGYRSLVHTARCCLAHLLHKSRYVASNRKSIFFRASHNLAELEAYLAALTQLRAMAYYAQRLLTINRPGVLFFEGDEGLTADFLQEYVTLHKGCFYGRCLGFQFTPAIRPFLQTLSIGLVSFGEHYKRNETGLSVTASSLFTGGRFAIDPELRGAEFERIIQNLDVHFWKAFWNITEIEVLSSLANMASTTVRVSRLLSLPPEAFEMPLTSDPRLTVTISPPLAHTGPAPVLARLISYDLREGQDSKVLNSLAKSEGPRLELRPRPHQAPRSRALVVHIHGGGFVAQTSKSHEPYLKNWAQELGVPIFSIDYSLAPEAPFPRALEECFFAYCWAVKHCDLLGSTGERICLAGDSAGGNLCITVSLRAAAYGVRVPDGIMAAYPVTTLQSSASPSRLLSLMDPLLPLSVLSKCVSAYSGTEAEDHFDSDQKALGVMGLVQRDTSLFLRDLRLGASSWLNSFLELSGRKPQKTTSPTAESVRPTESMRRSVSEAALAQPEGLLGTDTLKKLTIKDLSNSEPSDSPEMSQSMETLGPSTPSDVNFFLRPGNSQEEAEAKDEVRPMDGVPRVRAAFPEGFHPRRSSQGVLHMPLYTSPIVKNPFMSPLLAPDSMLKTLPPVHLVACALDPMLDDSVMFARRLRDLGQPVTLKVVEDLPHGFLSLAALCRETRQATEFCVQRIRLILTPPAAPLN
# Procedure: (§3) For ABPP experiments, cell lysate and tissue proteomes were treated with 1 μM FP-rhodamine for 30 min at room temperature (50 μL total reaction volume) as described previously (Nomura et al., 2010). Reactions were quenched with one volume of standard 4×SDS/PAGE loading buffer (reducing), separated by SDS/PAGE (10% acrylamide), and visualized in-gel with a Hitachi FMBio IIe flatbed fluorescence scanner (MiraiBio). Inhibitors were preincubated prior (30 min or 4 h at 37° C. in vitro or in situ, respectively) to the addition of FP-rhodamine.
# KIAA1363 = biological target: T2, KIAA1363 (Mus musculus, UniProt Q8BLF1); assay: Gel-based competitive ABPP of KIAA1363 in mouse brain membrane proteome (FP-rhodamine); assay type: biochemical
# T2 construct: ABPP analysis of KIAA1363 activity in mouse brain membrane proteome; from tissue; host or cells: mouse brain (membrane fraction)
# T2 sequence (Q8BLF1 1-408): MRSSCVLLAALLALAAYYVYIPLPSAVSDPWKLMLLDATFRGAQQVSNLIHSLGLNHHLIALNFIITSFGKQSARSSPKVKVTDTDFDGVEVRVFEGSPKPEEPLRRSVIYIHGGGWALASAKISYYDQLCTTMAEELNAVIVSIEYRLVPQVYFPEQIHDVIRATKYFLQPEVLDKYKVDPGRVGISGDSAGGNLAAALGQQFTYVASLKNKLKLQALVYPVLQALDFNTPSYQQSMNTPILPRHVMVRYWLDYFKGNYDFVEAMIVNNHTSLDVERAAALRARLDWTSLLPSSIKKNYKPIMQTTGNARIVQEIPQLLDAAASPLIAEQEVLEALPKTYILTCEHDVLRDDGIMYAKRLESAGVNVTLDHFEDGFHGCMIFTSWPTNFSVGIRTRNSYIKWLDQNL
# Procedure: In various embodiments, the invention provides a method of inhibiting a serine hydrolase, comprising contacting the hydrolase with a compound of formula (I), e.g., a compound selected from set of compounds shown in Table 1, below. […] IC50 values were derived from ABPP analysis of KIAA1363 activity in mouse brain membrane proteome and are averages of three replicates. Inhibitors were added to the proteome for 30 min before addition of FP-rhodamine (1 μM, 30 min).
# Tissues were Dounce-homogenized in PBS, pH 7.4, followed by a low-speed spin (1,400 g, 5 min) to remove debris. The supernatant was then subjected to centrifugation (100,000×g, 45 min) to provide the cytosolic fraction in the supernatant and the unsoluble fraction as a pellet. The pellet was washed and resuspended in PBS buffer by sonication. Total protein concentration in each fraction was determined using a protein assay kit (Bio-Rad). Samples were stored at −80° C. until use.
# as §3
# AChE = biological target: T3, AChE (Mus musculus, UniProt P21836); assay: AChE activity assay with acetylthiocholine in mouse brain proteome; assay type: biochemical; settings: acetylthiocholine hydrolysis in mouse brain membrane proteome
# T3 construct: 20 μg of cell lysate or mouse brain membrane proteome; from tissue; host or cells: mouse brain (membrane proteome)
# T3 sequence (P21836 32-614): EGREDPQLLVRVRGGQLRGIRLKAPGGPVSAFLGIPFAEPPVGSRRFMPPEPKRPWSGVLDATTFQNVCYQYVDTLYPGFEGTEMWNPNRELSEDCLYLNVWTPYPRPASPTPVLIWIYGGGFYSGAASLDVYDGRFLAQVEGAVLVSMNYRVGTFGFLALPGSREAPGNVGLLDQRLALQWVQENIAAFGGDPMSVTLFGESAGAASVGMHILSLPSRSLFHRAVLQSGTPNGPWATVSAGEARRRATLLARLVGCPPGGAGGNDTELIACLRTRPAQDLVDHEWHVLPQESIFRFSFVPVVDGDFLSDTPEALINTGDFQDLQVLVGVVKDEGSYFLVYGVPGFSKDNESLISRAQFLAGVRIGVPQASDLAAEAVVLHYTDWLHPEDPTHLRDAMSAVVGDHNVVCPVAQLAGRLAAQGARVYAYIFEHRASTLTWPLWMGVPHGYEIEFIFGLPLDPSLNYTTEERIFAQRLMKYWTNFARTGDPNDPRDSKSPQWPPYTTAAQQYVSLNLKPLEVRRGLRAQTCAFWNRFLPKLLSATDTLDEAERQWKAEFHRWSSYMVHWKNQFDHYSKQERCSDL
# Procedure: AChE activity was measured using a method similar to that described previously (Ellman et al., 1961). Briefly, 50 μL of 10 mM acetylthiocholine was added to 200 μL of PBS containing 2 mM DTNB and 20 μg of cell lysate or mouse brain membrane proteome. Absorbance was measured at 412 nm over 5 min, and the rate of product accumulation was calculated from the slope of the absorbance over time. For assays involving preincubation with inhibitors, the reactions were prepared without acetylthiocholine and JW480 was incubated at the indicated concentration for 30 min at 37° C. Acetylthiocholine was then added and the assay was carried out exactly as described above.
# [4] = mouse brain membrane proteome, inhibitor 30 min before FP-rhodamine (1 μM, 30 min), averages of three replicates, read-out: IC50 (KIAA1363)
# [5] = screened against KIAA1363, Table 1, read-out: IC50 values of less than 1 micromolar
# [6] = screened against KIAA1363, Table 1, read-out: IC50 values of around 10 nanomolar (most potent)
SMILES,IC50 (KIAA1363; [4]) [nM],also measured
"CCCCOC[C@H]1CCCC[C@H]1COCCNC(=O)Oc1ccccc1F [AS115, reference compound]",–,PC3 and DU145 serum-free cell survival (PC3 and DU145 cells [1]): impair; PC3 and DU145 invasion (PC3 and DU145 cells [2]): impair; MAGE levels [3]: lower MAGE levels
"Cc1ccc2ccccc2c1OC(=O)NCCc1ccc2ccccc2c1 [JW440, 2-methylnaphthalen-1-yl (2-(naphthalen-2-yl)ethyl)carbamate]",437,Cross-reactivity with HSL (HSL): little or no activity; IC50 (KIAA1363; [5]): < 1000 nM; Cross-reactivity with AChE (AChE): little or no activity
"CCOc1ccccc1OC(=O)NCCc1ccc(OC)cc1 [JW441, 2-ethoxyphenyl 4-methoxyphenethylcarbamate]",> 10000,–
"CCOc1ccccc1OC(=O)NCCc1cccc(OC)c1 [JW442, 2-ethoxyphenyl 3-methoxyphenethylcarbamate]",1010,–
"CCOc1ccccc1OC(=O)NCCC(c1ccccc1)c1ccccc1 [JW443, 2-ethoxyphenyl (3,3-diphenylpropyl)carbamate]",1830,–
"CCOc1ccccc1OC(=O)NCC(c1ccccc1)c1ccccc1 [JW444, 2-ethoxyphenyl (2,2-diphenylethyl)carbamate]",1050,–
"O=C(NCCc1ccc(C(F)(F)F)cc1)Oc1ccc(-n2cccc2)cc1 [JW446, 4-(1H-pyrrol-1-yl)phenyl 4-(trifluoromethyl)phenethylcarbamate]",> 50000,–
"Cc1ccc2ccccc2c1OC(=O)NCCc1ccc(C(F)(F)F)cc1 [JW447, 2-methylnaphthalen-1-yl 4-(trifluoromethyl)phenethylcarbamate]",858,–
"CCOc1ccccc1OC(=O)NCCc1ccc(C(F)(F)F)cc1 [JW448, 2-ethoxyphenyl 4-(trifluoromethyl)phenethylcarbamate]",293,IC50 (KIAA1363; [5]): < 1000 nM
"CC(C)c1ccccc1OC(=O)NCCc1ccc(F)cc1 [JW464, 2-isopropylphenyl 4-fluorophenethylcarbamate]",11.3,IC50 (KIAA1363; [6]): ~10 nM; Cross-reactivity with AChE (AChE): cross-reactivity
"COc1ccc(OC(=O)NCCc2ccc(F)cc2)c2ccccc12 [JW465, 4-methoxynaphthalen-1-yl 4-fluorophenethylcarbamate]",> 50000,–
"Cc1ccc(C(C)C)c(OC(=O)NCCc2ccc(F)cc2)c1 [JW466, 2-isopropyl-5-methylphenyl 4-fluorophenethylcarbamate]",197,IC50 (KIAA1363; [5]): < 1000 nM
"C=CCc1ccccc1OC(=O)NCCc1ccc(F)cc1 [JW468, 2-allylphenyl 4-fluorophenethylcarbamate]",94.3,–
"CN(C)c1cccc(OC(=O)NCCc2ccc(F)cc2)c1 [JW469, 3-(dimethylamino)phenyl 4-fluorophenethylcarbamate]",5160,–
"O=C(NCCc1ccc(F)cc1)Oc1ccc(C2CCCCC2)cc1 [JW472, 4-cyclohexylphenyl 4-fluorophenethylcarbamate]",119,IC50 (KIAA1363; [5]): < 1000 nM
"O=C(NCCc1ccc(F)cc1)Oc1ccc(-c2ccccc2)cc1 [JW473, [1,1′-biphenyl]-4-yl 4-fluorophenethylcarbamate]",955,IC50 (KIAA1363; [5]): < 1000 nM
"O=C(NCCc1ccc(F)cc1)Oc1ccc(C2CCCC2)cc1 [JW474, 4-cyclopentylphenyl 4-fluorophenethylcarbamate]",795,–
"COc1cccc(OC(=O)NCCc2ccc(F)cc2)c1OC [JW477, 2,3-dimethoxyphenyl 4-fluorophenethylcarbamate]",> 10000,–
"CC(C)c1ccccc1OC(=O)NCCc1ccc2c(c1)OCO2 [JW481, 2-isopropylphenyl (2-(benzo[d][1,3]dioxol-5-yl)ethyl)carbamate]",11.3,IC50 (KIAA1363; [6]): ~10 nM
"CC(C)c1ccccc1OC(=O)NCCc1ccc(C(F)(F)F)cc1 [JW482, 2-isopropylphenyl 4-(trifluoromethyl)phenethylcarbamate]",9.4,IC50 (KIAA1363; [6]): ~10 nM

# — patent US9249128B2 (priority 2010, dated 2016)
